One sequence from patent US20240327459A1, “PEPTIDE FRAGMENTS FOR TREATMENT OF DIABETES” (Follicum AB, priority 2018, published 2024) can be followed below.

Assay [1] concerns INS-1 β-cells. In words: Insulin secretion from INS-1 cells (Examples 4 and 6). Format: cell-based, rat. The note with it: Example 6, 6 μM peptide, KRB buffer, 60 min, vs unstimulated control cells. The method, then:
To investigate the stimulatory effect of FOL-005 on insulin secretion, INS-1 β-cells were used in the following experiments. Cells were seeded overnight in cRPMI and then washed with PBS before pre-incubation for 60 min at 37° C. in Krebs-Ringer bicarbonate buffer (KRB), pH 7.4, supplemented with 10 mM HEPES, 0.1% bovine serum albumin. After pre-incubation, the buffer was changed and the INS-1 cells were incubated at different test conditions (0 mM, 5 mM or 20 mM glucose) and stimulated with peptide FOL-005 or FOL-015 (SEQ ID NO: 158) or left untreated during 60 min at 37° C. Immediately after incubation, an aliquot of the buffer was removed and frozen for subsequent assay of insulin with an insulin radioimmunoassay kit.
INS-1 β-cells were used to investigate the stimulatory effect of FOL-014 on insulin secretion. Cells were seeded overnight and then washed with PBS before pre-incubation for 60 min at 37° C. in Krebs-Ringer bicarbonate buffer (KRB), pH 7.4, supplemented with 10 mM HEPES, 0.1% bovine serum albumin. After pre-incubation, the buffer was changed and the INS-1 cells were incubated in new KRB buffer supplemented with 10 mM HEPES, 0.1% bovine serum albumin and stimulated with peptide FOL-014 or left untreated during 60 min at 37° C. Immediately after incubation, an aliquot of the buffer was removed and frozen for subsequent assay of insulin.

For assay [2], the system named is wild type C57bl/6 mice. The assay is described as follows: Intraperitoneal glucose tolerance test (IPGTT). Format: in vivo, mouse. The note with it: 15 min before 2 g glucose/kg ip, vs saline control. The method, then:
Whole blood was collected for glucose and insulin measurements from 10-week-old wild type maleC57bl/6 mice. After a 4 hour fast, the mice were divided into three groups and given an intraperitoneal injection (ip) of either saline, 30 nmol/kg peptide (FIG. 9A) or 200 nmol/kg peptide (FIG. 9B). 15 min after the FOL-014 or saline (control) injections, the mice were administered 2 g of glucose/kg ip. Blood glucose concentrations were measured at 5, 15, 30, 45 and 60 minutes after the glucose injection. Statistical calculations were performed using student's t-test. […] In addition, the difference was significant at 15, 30 and 45 minutes.

The test system of assay [3] is mouse pancreatic islets. The assay is described as follows: Insulin secretion from isolated mouse pancreatic islets (Examples 5 and 7). Format: cell-based. The note with it: 60 min. The method, then: Mouse pancreatic islets were isolated from 8-week old C57BL/6J male mice (Taconic). Mice were sacrificed by an overdose of isoflurane and cervical dislocation. 3 ml of 0.9 U/ml collagenase P was injected into the pancreatic duct to inflate the pancreas. The Pancreas was then removed and collagen digested for 19 min at 37° C. The samples Were vigorously shaken to disrupt the tissue. The digest was transferred into ice cold Hank's Balanced Salt Solution (HBSS) with Ca^2+ and Mg^2+. The suspension was allowed to sit for 10 min to allow the islet to sink, and the islets were washed in fresh HBSS four times. The islets were then hand-picked and sorted according to size. Islets (n=3 per well in a 96 well plate) were pre-incubated in KRB buffer during 10 min 37° C., pH 7.4, supplemented with 10 mM HEPES, 0.1% bovine serum albumin. After pre-incubation, the buffer was changed and islets were incubated at different test conditions in new KRB buffer with 0.1% bovine serum albumin (non-treated ctrl, FOL-005 peptide, or GLP-1) for 60 min at 37° C. Immediately after incubation, an aliquot of the buffer was removed and frozen for subsequent assay of insulin.
Mouse pancreatic islets were isolated from 8-week old C57BL/6J male mice as described under example 5. The islets were then hand-picked and sorted according to size. Islets (n=5 per well in a 96 well plate) were pre-incubated in 200 μl KRB buffer during 10 min 37° C., pH 7.4, supplemented with 10 mM HEPES, 0.1% bovine serum albumin. Following pre-incubation, the buffer was changed and islets were incubated in different test conditions in new KRB buffer with 0.1% bovine serum albumin (non-treated ctrl, FOL-014 peptide, and GLP-1) for 60 min at 37° C. Immediately after incubation, an aliquot of the buffer was removed and frozen for subsequent assay of insulin.

The test system of assay [4] is BB lyp/lyp rats. In words: Onset of type 1 diabetes in BB lyp/lyp rats. The note with it: 100 nmol/kg subcutaneously 3 times/week from day 40, vs placebo. Format: in vivo, rat. The method, then: BB lyp/lyp rats were randomized for placebo (sodium chloride, 9 mg/ml) or FOL-014 treatment 3 times/week from day 40 until onset of type 1 diabetes, defined as plasma glucose levels ≥11.1 mM. The dose of 100 nmol/kg FOL-014 peptide in saline or placebo (saline) was administered subcutaneously and the animals were terminated immediately upon exceeding critical plasma glucose levels. The difference between FOL-014 treated animals and animals receiving placebo treatment was significant both when expressed as average age for onset of type 1 diabetes (FIG. 10A) and when described as percentage of animals developing type 1 diabetes per day (FIG. 10B).

Assay [5] has as its system INS-1 cells. In words: Proliferation of INS-1 cells ([methyl-3H] thymidine incorporation). Type of assay: cell-based, rat. The note with it: wells coated with peptide and blocked with BSA, vs BSA coated control wells. The method, then: To investigate if FOL-005 and FOL-014 could induce proliferation of β-cells we used INS-1 cells. Rat INS-1 cells were seeded in 96-well plates in RPMI medium with supplement and after 2 hours the medium was changed to RPMI without supplement. During the proliferation experiment the cells were incubated at different test conditions (FOL-005, FOL-014, coated or in solution, 48 h incubation) and during the last 20 hours of culture period the cells were pulsed with 1 μ Ci/well of [methyl-3H] thymidine. The cells were then harvested onto glass fiber filters using a FilterMate harvester. The filters were air dried, and the bound radioactivity was measured using a liquid scintillation counter. To study whether FOL-005 influenced β-cell proliferation, INS-1 cells were treated with increasing amounts of soluble FOL-005 (0.06-6 μM) during 48 hours and proliferation was measured with radiolabeled thymidine incorporation into newly synthesized DNA.

“Also recorded” adds a separate entry of the source.

In the case of “KPLAEIDSIELSYGIK (MISC_FEATURE - peptide, FOL-014)”, the insulin secretion entry in assay [1] is listed as “secreted more insulin compared to unstimulated control cells”; in assay [3] (Example 7, 0.6 μM), “did not affect insulin secretion; also recorded: had no effect on insulin secretion”; in assay [3] (Example 7, 6 μM, vs unstimulated control islets), “secreted more insulin compared to unstimulated control islets”. Moreover, the plasma glucose levels entry is “lowered the plasma glucose levels with a significant effect at 45 minutes after the glucose injection” in assay [2] (30 nmol/kg ip); “significantly lowered the plasma glucose levels as compared to the control when measured as area under the curve; also recorded: significantly lowered the plasma glucose levels as compared to the control at 15 minutes, 30 minutes and 45 minutes” in assay [2] (200 nmol/kg ip). In addition, in assay [4], the “onset of type 1 diabetes” value was “significantly delayed the onset of type-1 diabetes; also recorded: significant delay in the onset of diabetes”. The “proliferation of INS-1 cells” value in assay [5] was “stimulated proliferation compared to control; also recorded: induced more proliferation compared to only BSA coated wells”.
